Results published in the supplement of paper PMC10307832.

Key:
Assay in all cases: relative viability (nuclei count vs DMSO), 5 days (fraction); higher = more cells survive
[1] = compound: CC[C@@H](C)CNCC(=O)N1CCC2=C([C@@H]1COC3=CC=CC(=C3)C)C=CS2 [RU-SKI 43] + CC(C)C[C@H](NC(=O)[C@H](Cc1ccccc1)NC(=O)c1cnccn1)B(O)O [Bortezomib] (partner 0.002 µM)
Summary of the method: (§1)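 Medians of duplicate plates are given as relative viability. That measure is the nuclei count in treated wells divided by the count in vehicle wells. Counts were taken on 4× images of lung cancer cell lines in 1536-well plates, 5 days after pin-tool dosing the day after seeding with one drug alone or a fixed anchor-drug dose plus five library-drug doses (not always all listed) in √10 steps.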

[2] = compound: CC[C@@H](C)CNCC(=O)N1CCC2=C([C@@H]1COC3=CC=CC(=C3)C)C=CS2 [RU-SKI 43] + CS(=O)(=O)N1CCN(Cc2cc3nc(-c4cccc5[nH]ncc45)nc(N4CCOCC4)c3s2)CC1 [Pictilisib] (partner 1 µM)
Summary of the method: as §1

[3] = compound: CC[C@@H](C)CNCC(=O)N1CCC2=C([C@@H]1COC3=CC=CC(=C3)C)C=CS2 [RU-SKI 43] + CCNC(=O)c1noc(-c2cc(C(C)C)c(O)cc2O)c1-c1ccc(CN2CCOCC2)cc1 [Luminespib] (partner 0.01 µM)
Summary of the method: as §1

[4] = compound: Cn1cc(-c2cnc3ccc4ccc(CS(=O)(=O)NCc5ccccn5)cc4c(=O)c3c2)cn1 [MK-8033] + CC(=O)Nc1cccc(-n2c(=O)n(C3CC3)c(=O)c3c(Nc4ccc(I)cc4F)n(C)c(=O)c(C)c32)c1 [Trametinib] (partner 0.02 µM)
Summary of the method: as §1

Row | Cell Line | relative viability ([1]; first compound 0.1 µM) | relative viability ([1]; first compound 0.3162 µM) | relative viability ([1]; first compound 1 µM) | relative viability ([1]; first compound 3.162 µM) | relative viability ([1]; first compound 10 µM) | relative viability ([2]; first compound 0.1 µM) | relative viability ([2]; first compound 0.3162 µM) | relative viability ([2]; first compound 1 µM) | relative viability ([2]; first compound 3.162 µM) | relative viability ([2]; first compound 10 µM) | relative viability ([3]; first compound 0.1 µM) | relative viability ([3]; first compound 0.3162 µM) | relative viability ([3]; first compound 1 µM) | relative viability ([3]; first compound 3.162 µM) | relative viability ([3]; first compound 10 µM) | relative viability ([4]; first compound 0.02 µM) | relative viability ([4]; first compound 0.2 µM) | relative viability ([4]; first compound 0.6325 µM) | relative viability ([4]; first compound 2 µM) | relative viability ([4]; first compound 0.06325 µM)
1 | H3255 | 0.906 | 0.751 | 1.23 | 0.652 | 0.754 | 0.435 | 0.412 | 0.512 | 0.494 | 0.455 | 0.928 | 0.951 | 1.23 | 0.76 | 0.849 | 0.598 | 0.562 | 0.656 | 0.532 | –
2 | BEN | 0.815 | 0.819 | 1.24 | 0.769 | 0.665 | 0.642 | 0.546 | 0.791 | 0.528 | 0.584 | 0.423 | 0.277 | 0.525 | 0.218 | 0.421 | 1.07 | 0.964 | 1.03 | 0.991 | 0.943
3 | NCI-H23 | 0.968 | 1.16 | 0.958 | 1.36 | 0.899 | 0.441 | 0.497 | 0.536 | 0.492 | 0.468 | 0.209 | 0.181 | 0.209 | – | 0.224 | 0.331 | 0.331 | – | 0.381 | 0.349
4 | NCI-H441 | 0.649 | 0.243 | 0.657 | 0.562 | 0.393 | 0.466 | 0.491 | 0.47 | 0.609 | 0.468 | 0.285 | 0.324 | 0.436 | 0.316 | 0.375 | 0.376 | 0.391 | 0.487 | 0.437 | 0.343
5 | NCI-H1437 | 0.581 | 0.594 | 0.637 | 0.629 | 0.526 | 0.438 | 0.529 | 0.432 | 0.465 | 0.446 | 1.07 | 1.26 | 1.15 | 1.1 | 1.04 | 0.483 | 0.46 | 0.607 | 0.449 | 0.583
6 | HARA | 1.22 | 1.19 | 1.13 | 1.18 | 1.14 | 0.524 | 0.512 | 0.435 | 0.458 | 0.318 | 0.687 | 0.765 | 0.918 | 0.974 | 0.672 | 0.509 | 0.825 | 0.423 | 0.689 | 0.525
